Entries after “also recorded” stand apart in the source; their conditions may differ.
Experiments:
Assay type in all cases: cell-based
[1] = test system: Saos-2 osteosarcoma cells expressing GFP-LC3; test: Autophagy response by punctate localization of GFP-LC3 to autophagic vacuoles, fluorescence microscopy; conditions: for Activate Autophagy Response: Table 1; for Induction of autophagy: Table 2; for Enhancement of autophagy (GFP-LC3 at autophagic vacuoles) / Stimulation of autophagy compared with amino acid and serum starved cells (FIG. 2G): enriched (Fed) medium; for Stimulation of autophagy compared with amino acid and serum starved cells (FIG. 2G): 100 μM
Experimental: FIGS. 2A-2G. Activation of autophagy by Bcl-XL targeting compounds. The positions of C2 in Site 1 (FIG. 2A), C5 in Site 1 (FIG. 2B), and C8 in Site 2 (FIG. 2C) of Bcl-xl are shown by in silico molecular docking. Saos-2 osteosarcoma cells expressing GFP-LC3 were incubated in enriched (Fed) medium in the presence of C2 (FIG. 2D), C5 (FIG. 2E) and C8 (FIG. 2F) Bcl-targeted compounds. GFP-LC3 is found diffuse throughout the cytosol and nucleus when autophagy is suppressed. Ongoing autophagy can be visualized by the presence of GFP-LC3 at autophagic vacuoles (AVs) that appear as dots (arrows). […] In FIG. 2E, Saos-2 osteosarcoma cells expressing GFP-LC3 were incubated in enriched (Fed) medium in the absence and presence of Bcl-targeted compounds or in medium lacking amino acids and serum (Starved).
FIG. 4A-4F. Activation of autophagy by Bcl-targeted compounds. The localization of GFP-LC3 to autophagic vacuoles was enhanced by […] Bcl-targeted compounds in Saos-2 osteosarcoma cells. The autophagy response in fed Saos2 cells was measured in the absence and presence of anti-Bcl compounds by visualizing the punctate localization of GFP-LC3 (FIGS. 4A-4C) and RFP-GFP-LC3 (FIGS. 4D-4F) to autophagic vacuoles. In untreated fed cells, the GFP-LC3 is localized uniformly throughout the cell. […] Autophagy in cells expressing RFP-GFP-LC3 (FIGS. 4D-4F) was activated with compound B2-1. Structures containing RFP (red, FIG. 4D) and GFP (green, FIG. 4E) are autophagosomes (arrow), while RFP (red, FIG. 4D) structures are autolysosomes (arrowhead).
(§1) FIGS. 5A-5C. Characterization of proBeclin 1 compounds. Upon ranking 100 NCl compounds by in silico docking to Bcl-xl, the autophagy responses were evaluated in fed Saos-2 cells expressing GFP-LC3 (FIG. 5A). […] Cells were maintained in nutrient-rich medium in the absence and presence of Bcl-targeted compounds for 4 hr. The cells were then solubilized, Beclin 1 complex immunoprecipitated, and the Beclin 1 hound proteins identified by Western blotting (FIG. 5C). The IgG-LC is the immunoglobin light chain of the anti-Beclin 1 antibody that was used to immunoprecipitate the complex. The absence of Bcl-xl is indicative of an inhibition of Beclin 1 binding.
This was done in Saos-2 osteosarcoma cells stably expressing the autophagosome marker, GFP-LC3. In fed cells not undergoing autophagy GFP-LC3 is a soluble protein found throughout the cytosol. In amino acid and serum starved cells, autophagy is activated and GFP-LC3 becomes associated with autophagic vacuoles that can be visualize by fluorescence microscopy.
(§2) When autophagy is suppressed, GFP-LC3 distributes uniformly throughout the cellular cytoplasm (FIG. 4A). Autophagy response can be observed by visualizing the punctuate pattern of GFP-LC3 indicative of the presence of autophagic vacuoles. We can also use tandem-labeled LC3, RFP-GFP-LC3 to better assess the dynamics of the autophagy response by visualizing both autophagosomes and autolysosomes (FIG. 4D-4F). […] To further substantiate that the accumulation of GFP-LC3 structures is not due to a blockage of basal autophagy but the positive effects of the compounds on the autophagy response, the autophagy response is validated by quantitative protein turnover measures using radiolabeled amino acids (FIG. 5B). Finally, we determine whether the compound interferes with Beclin 1 binding to Bcl-xl (FIG. 5C) and Bcl-2 as we would suspect if the compound acts through the intended novel mechanism of action.

[2] = test system: protein degradation; test: Protein degradation by pulse-chase methods using 14C-valine; conditions: for Rates of protein degradation (FIG. 5B): 14C-valine pulse-chase, compared to a control compound, n=6; for Stimulate Protein Degradation: Table 1; for Proteolysis, bar coding of FIG. 5A: black bar stimulated, striped bar inhibited
Experimental: as §1, §2

[3] = test system: Beclin 1/Bcl binding; test: Beclin 1/Bcl binding by immunoprecipitation with anti-Beclin 1 antibodies and Western blotting; conditions: for Inhibit Beclin 1 Binding: Table 1; for Beclin 1 binding to Bcl-xl / Bcl proteins: nutrient-rich medium, 4 hr
From the text: FIGS. 5A-5C. Characterization of proBeclin 1 compounds. […] Cells were maintained in nutrient-rich medium in the absence and presence of Bcl-targeted compounds for 4 hr. The cells were then solubilized, Beclin 1 complex immunoprecipitated, and the Beclin 1 hound proteins identified by Western blotting (FIG. 5C). The IgG-LC is the immunoglobin light chain of the anti-Beclin 1 antibody that was used to immunoprecipitate the complex.
Autophagy response can be observed by visualizing the punctuate pattern of GFP-LC3 indicative of the presence of autophagic vacuoles. We can also use tandem-labeled LC3, RFP-GFP-LC3 to better assess the dynamics of the autophagy response by visualizing both autophagosomes and autolysosomes (FIG. 4D-4F). […] Finally, we determine whether the compound interferes with Beclin 1 binding to Bcl-xl (FIG. 5C) and Bcl-2 as we would suspect if the compound acts through the intended novel mechanism of action.

Compound	Activate Autophagy Response [1]	Induction of autophagy [1]	Enhancement of autophagy (GFP-LC3 at autophagic vacuoles) [1]	Stimulate Protein Degradation [2]	Inhibit Beclin 1 Binding [3]	Proteolysis, bar coding of FIG. 5A [2]	also measured
O=C(O)CCn1c(=O)[nH]c(=O)n(CCC(=O)O)c1=O [NSC11693]	Yes	NSC 11693 Induces autophagy; not tested for the induction of cell death					
CN(C)CCNNC1CCCN(C)C1 (centres unmarked) [NSC21689]	Yes		activate autophagy	Yes	No		Rates of protein degradation (FIG. 5B) [2]: activate; Beclin 1 binding to Bcl-xl / Bcl proteins ([3]; listed as Bx-16): did not; also recorded: do not appear to affect Beclin 1 binding; also recorded: does not inhibit Beclin 1 binding as well as Bx-8
C1CC2NCCC3NCCC(N1)N32 (centres unmarked) [NSC81462, Dodecahydro-1,4,7,9b-tetraazaphenalene]	Yes		stimulate autophagy	Yes	Yes	stimulated proteolysis	Rates of protein degradation (FIG. 5B) ([2]; listed as Bx-8): elevated; also recorded: stimulate; Beclin 1 binding to Bcl-xl / Bcl proteins ([3]; listed as Bx-8): inhibited Beclin 1 binding; also recorded: inhibiting Beclin 1 binding
O=C1/C(=N\Nc2cc(Cl)ccc2O)C(S(=O)(=O)O)=Cc2cc(S(=O)(=O)O)cc(O)c21 [NSC100234, (3E)-3-[(5-chloro-2-hydroxyphenyl)hydrazinyleidene]-5-hydroxy-4-oxonapthalene-2,7-disulfonic acid]	Yes		stimulate autophagy	Yes	Yes		Rates of protein degradation (FIG. 5B) [2]: stimulate; Beclin 1 binding to Bcl-xl / Bcl proteins [3]: inhibiting Beclin 1 binding
O=C(c1ccc(Cl)cc1)C(C(c1ccc([N+](=O)[O-])cc1)N1CCCCC1)N1CCCCC1 (centres unmarked) [NSC150193, 1-(4-chlorophenyl)-3-(4-nitrophenyl)-2,3-di(piperidin-1-yl)propan-1-one]	Yes	NSC 150193 Induces autophagy; not tested for the induction of cell death	stimulate autophagy	Yes	Yes	stimulated proteolysis	Rates of protein degradation (FIG. 5B) ([2]; listed as B2-7): elevated; also recorded: stimulate; Beclin 1 binding to Bcl-xl / Bcl proteins [3]: inhibiting Beclin 1 binding
Clc1cc(Cl)c(C[N+]23CN4CN(CN(C4)C2)C3)cc1Cl.[Cl-] [NSC155877, 3,5,7-Triaza-1-axoniaadamantane, 1-(2,4,5-trichlorobenzyl)-, chloride]	Yes				No		
OC(CCl)CN1CC[N+]2(CC1)CC[N+]1(CCN(CC(O)CCl)CC1)CC2.[Cl-].[Cl-] (centres unmarked) [NSC166100, 3,12-Bis(3-chloro-2-hydroxypropyl)-3,12-diaza-6,9-diazoniadispiro[5.2.5.2]hexadecane dichloride]	Yes	Induces			No		Stimulation of autophagy compared with amino acid and serum starved cells (FIG. 2G) [1]: promote autophagy
CN(C)CC(CN1c2ccccc2Sc2ccccc21)N(C)C (centres unmarked) [NSC169468]	Yes	NSC 169468 Induces autophagy; not tested for the induction of cell death					Stimulation of autophagy compared with amino acid and serum starved cells (FIG. 2G) [1]: stimulated autophagy to levels seen in amino acid and serum starved cells
CC1CC(C)(C)NCCNC(C)CC(C)(C)NCCN1 (centres unmarked) [NSC175445, 5,5,7,12,12,14-hexamethyl-1,4,8,11-tetrazacyclotetradecane]	Yes	NSC 175445 Induces autophagy; not tested for the induction of cell death	stimulate autophagy		Yes	stimulated proteolysis	Beclin 1 binding to Bcl-xl / Bcl proteins ([3]; listed as B2-11): inhibited Beclin 1 binding; also recorded: interfere with Beclin 1 binding

Reference: patent publication US20120141491A1, “METHODS AND COMPOSITIONS FOR THE TREATMENT OF CANCERS AND PATHOGENIC INFECTIONS” (priority 2009, published 2012)
